Each compound was assayed against human recombinant H-PGDS (Homo sapiens, UniProt O60760) (assay: Fluorescence intensity h-PGDS TBA enzyme assay). Conditions: Examples up to 622 (and 3a, 3b).
Assay type: biochemical

Sequence of human recombinant H-PGDS (O60760 whole entry): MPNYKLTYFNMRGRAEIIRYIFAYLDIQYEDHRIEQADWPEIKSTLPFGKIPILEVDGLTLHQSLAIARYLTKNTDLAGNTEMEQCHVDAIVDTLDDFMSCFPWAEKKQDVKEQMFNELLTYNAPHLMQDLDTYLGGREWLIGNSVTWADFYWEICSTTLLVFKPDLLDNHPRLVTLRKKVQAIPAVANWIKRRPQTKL

**Q.** How did the IC50 turn out when `CC(C)(C)OC(=O)N1C[C@H](O)[C@H](NC(=O)c2ccc(-c3cccc(F)c3)nc2)C1` (relative stereo) [Example 609, cis-tert-Butyl 3-({[6-(3-fluorophenyl)pyridin-3-yl]carbonyl}amino)-4-hydroxypyrrolidine-1-carboxylate] was run?
**A.** 5.43 nM

**Q.** With `CC(C)(C)OC(=O)N1C[C@@H](O)[C@H](NC(=O)c2ccc(-c3cccc(F)c3)nc2)C1` (relative stereo) [Example 610, Trans-tert-Butyl 3-({[6-(3-fluorophenyl)pyridin-3-yl]carbonyl}amino)-4-hydroxypyrrolidine-1-carboxylate] as the compound, how does the IC50 read?
**A.** 6.92 nM

**Q.** Which IC50 does the source give for `CC(C)(C)C(=O)N1C[C@@H](O)[C@H](NC(=O)c2ccc(-c3cccc(F)c3)nc2)C1` (relative stereo) [Example 612, Trans-N-[1-(2,2-dimethylpropanoyl)-4-hydroxypyrrolidin-3-yl]-6-(3-fluorophenyl)nicotinamide] here?
**A.** 12 nM

**Q.** `O=C(N[C@H]1CN(c2cnc3ccccc3n2)C[C@@H]1O)c1ccc(-c2cccc(F)c2)nc1` (relative stereo) [Example 613, trans-6-(3-Fluorophenyl)-N-[4-hydroxy-1-quinoxalin-2-ylpyrrolidin-3-yl]nicotinamide] was tested. Which IC50 did it give?
**A.** 3.57 nM

**Q.** Which IC50 does the source give for `CCc1cn2nc(N3C[C@H](NC(=O)c4ccc(-c5cccc(F)c5)nc4)[C@@H](O)C3)ccc2n1` (relative stereo) [Example 614, Trans-N-[1-(2-ethylimidazo[12-b]pyridazin-6-yl)-4-hydroxypyrrolidin-3-yl]-6-(3-fluorophenyl)nicotinamide] here?
**A.** 52.5 nM

**Q.** `Cc1cc(C)c(C#N)c(N2C[C@@H](O)[C@H](NC(=O)c3ccc(-c4cccc(F)c4)nc3)C2)n1` (relative stereo) [Example 615, Trans-N-[1-(3-cyano-4,6-dimethylpyridin-2-yl)-4-hydroxypyrrolidin-3-yl]-6-(3-fluorophenyl)nicotinamide] was tested. Which IC50 did it give?
**A.** 5.1 nM

**Q.** How did the IC50 turn out when `O=C(N[C@@H]1CN(c2nc3ccccc3o2)C[C@H]1O)c1ccc(-c2cccc(F)c2)nc1` (relative stereo) [Example 616, Trans-N-[1-(1,3-benzoxazol-2-yl)-4-hydroxypyrrolidin-3-yl]-6-(3-fluorophenyl)nicotinamide] was run?
**A.** 5.12 nM

**Q.** With `Cc1ccc(C#N)c(N2C[C@H](NC(=O)c3ccc(-c4cccc(F)c4)nc3)[C@@H](O)C2)n1` (relative stereo) [Example 617] as the compound, how does the IC50 read?
**A.** 4.1 nM

**Q.** For `O=C(N[C@@H]1CN(c2ncc3ccc(F)cc3n2)C[C@H]1O)c1ccc(-c2cccc(F)c2)nc1` (relative stereo) [Example 618, Trans-6-(3-fluorophenyl)-N-[1-(7-fluoroquinazolin-2-yl)-4-hydroxypyrrolidin-3-yl]nicotinamide], which IC50 is on record?
**A.** 7.33 nM

**Q.** Which IC50 does the source give for `O=C(N[C@@H]1CN(c2nnnn2-c2ccccc2)C[C@H]1O)c1ccc(-c2cccc(F)c2)nc1` (relative stereo) [Example 619, Trans-6-(3-fluorophenyl)-N-[4-hydroxy-1-(1-phenyl-1H-tetrazol-5-yl)pyrrolidin-3-yl]nicotinamide] here?
**A.** 1.19 nM

**Q.** `CCC(CO)n1cnc2c(N3CCC(NC(=O)c4ccc(-c5cccc(F)c5)nc4)CC3)ncnc21` (single isomer, unassigned) [Example 581, 6-(3-Fluorophenyl)-N-(1-{9-[1-(hydroxymethyl)propyl]-9H-purin-6-yl}piperidin-4-yl)nicotinamide] was tested. Which IC50 did it give?
**A.** 0.69 nM

**Q.** `CCC(CO)n1cnc2c(N3CCC(NC(=O)c4ccc(-c5cccc(F)c5)nc4)CC3)ncnc21` (single isomer, unassigned) [Example 582, 6-(3-Fluorophenyl)-N-(1-{9-[1-(hydroxymethyl)propyl]-9H-purin-6-yl}piperidin-4-yl)nicotinamide] was tested. Which IC50 did it give?
**A.** 1.22 nM

**Q.** For `O=C(NC1CCN(CC(F)(F)F)CC1)c1ccc(-c2ccccc2)nc1` [Example 1, 6-Phenyl-N-(1-(2,2,2-trifluoroethyl)piperidin-4-yl)nicotinamide], which IC50 is on record?
**A.** 0.204 nM

**Q.** How did the IC50 turn out when `O=C(NC1CCN(c2ccc(C(=O)N3CCOCC3)cn2)CC1)c1ccc(-c2cccc(F)c2)nc1` [Example 3, 6-(3-Fluorophenyl)-N-{1-[5-(morpholin-4-ylcarbonyl)pyridin-2-yl]piperidin-4-yl}nicotinamide] was run?
**A.** 0.343 nM

**Q.** How did the IC50 turn out when `CN1CCC(NC(=O)c2ccc(-c3ccccc3)nc2)CC1` [Example 3a, N-(1-Methylpiperidin-4-yl)-6-phenylnicotinamide] was run?
**A.** 6.86 nM

**Q.** How did the IC50 turn out when `CCOC(=O)N1CCC(NC(=O)c2ccc(-c3ccccc3)nc2)CC1` [Example 3b, Ethyl 4-{[(6-phenylpyridin-3-yl)carbonyl]amino}piperidine-1-carboxylate] was run?
**A.** 0.403 nM

**Q.** `CC(C)N1CCC(NC(=O)c2ccc(-c3ccccc3)nc2)CC1` [Example 4, N-(1-Isopropylpiperidin-4-yl)-6-phenylnicotinamide] was tested. Which IC50 did it give?
**A.** 2.58 nM

**Q.** `O=C(NC1CCN(Cc2ccccn2)CC1)c1ccc(-c2ccccc2)nc1` [Example 5, 6-Phenyl-N-[1-(pyridin-2-ylmethyl)piperidin-4-yl]nicotinamide] was tested. Which IC50 did it give?
**A.** 0.665 nM

**Q.** How did the IC50 turn out when `O=C(NC1CCN(CC2CCOCC2)CC1)c1ccc(-c2ccccc2)nc1` [Example 6, 6-Phenyl-N-[1-(tetrahydro-2H-pyran-4-ylmethyl)piperidin-4-yl]nicotinamide] was run?
**A.** 0.377 nM

**Q.** `CC(C)(C)C(=O)N1CCC(NC(=O)c2ccc(-c3ccccc3)nc2)CC1` [Example 7, N-[1-(2,2-Dimethylpropanoyl)piperidin-4-yl]-6-phenylnicotinamide] was tested. Which IC50 did it give?
**A.** 0.351 nM

**Q.** For `O=C(NC1CCN(Cc2ccccc2)CC1)c1ccc(-c2ccccc2)nc1` [Example 8, N-(1-Benzylpiperidin-4-yl)-6-phenylnicotinamide], which IC50 is on record?
**A.** 1.57 nM

**Q.** Which IC50 does the source give for `O=C(NC1CCN(CC(F)(F)F)CC1)c1ccc(-c2ccc(F)cc2)nc1` [Example 9, 6-(4-Fluorophenyl)-N-(1-(2,2,2-trifluoroethyl)piperidin-4-yl)nicotinamide] here?
**A.** 23.6 nM

**Q.** How did the IC50 turn out when `CCCC(=O)N1CCC(NC(=O)c2ccc(-c3ccc(F)cc3)nc2)CC1` [Example 10, N-(1-Butyrylpiperidin-4-yl)-6-(4-fluorophenyl)nicotinamide] was run?
**A.** 78.4 nM

**Q.** How did the IC50 turn out when `O=C(NC1CCN(Cc2ccccn2)CC1)c1ccc(-c2ccc(F)cc2)nc1` [Example 11, 6-(4-Fluorophenyl)-N-[1-(pyridin-2-ylmethyl)piperidin-4-yl]nicotinamide] was run?
**A.** 39.4 nM

**Q.** How did the IC50 turn out when `CN1CCC(NC(=O)c2ccc(-c3ccc(F)cc3)nc2)CC1` [Example 12, 6-(4-Fluorophenyl)-N-(1-methylpiperidin-4-yl)nicotinamide] was run?
**A.** 694 nM

**Q.** For `O=C(NC1CCN(Cc2ccccc2)CC1)c1ccc(-c2ccc(F)cc2)nc1` [Example 13, N-(1-Benzylpiperidin-4-yl)-6-(4-fluorophenyl)nicotinamide], which IC50 is on record?
**A.** 58 nM

**Q.** With `COc1cccc(-c2ccc(C(=O)NC3CCN(CC(F)(F)F)CC3)cn2)c1` [Example 14, 6-(3-Methoxyphenyl)-N-(1-(2,2,2-trifluoroethyl)piperidin-4-yl)nicotinamide] as the compound, how does the IC50 read?
**A.** 4.29 nM

**Q.** How did the IC50 turn out when `COc1cccc(-c2ccc(C(=O)NC3CCN(Cc4ccccn4)CC3)cn2)c1` [Example 15, 6-(3-Methoxyphenyl)-N-[1-(pyridin-2-ylmethyl)piperidin-4-yl]nicotinamide] was run?
**A.** 2.91 nM

**Q.** `COc1cccc(-c2ccc(C(=O)NC3CCN(C)CC3)cn2)c1` [Example 16, 6-(3-Methoxyphenyl)-N-(1-methylpiperidin-4-yl)nicotinamide] was tested. Which IC50 did it give?
**A.** 146 nM

**Q.** With `COc1cccc(-c2ccc(C(=O)NC3CCN(Cc4ccccc4)CC3)cn2)c1` [Example 17, N-(1-Benzylpiperidin-4-yl)-6-(3-methoxyphenyl)nicotinamide] as the compound, how does the IC50 read?
**A.** 11.7 nM

**Q.** Which IC50 does the source give for `CCOC(=O)N1CCC(NC(=O)c2ccc(-c3cccc(OC)c3)nc2)CC1` [Example 18, Ethyl 4-({[6-(3-methoxyphenyl)pyridin-3-yl]carbonyl}amino)piperidine-1-carboxylate] here?
**A.** 3.94 nM

**Q.** `CCCC(=O)N1CCC(NC(=O)c2ccc(-c3cccc(OC)c3)nc2)CC1` [Example 19, N-(1-Butyrylpiperidin-4-yl)-6-(3-methoxyphenyl)nicotinamide] was tested. Which IC50 did it give?
**A.** 36.2 nM

**Q.** For `COc1cccc(-c2ccc(C(=O)NC3CCN(C(C)C)CC3)cn2)c1` [Example 20, N-(1-Isopropylpiperidin-4-yl)-6-(3-methoxyphenyl)nicotinamide], which IC50 is on record?
**A.** 1000 nM

**Q.** With `Cc1cccc(-c2ccc(C(=O)NC3CCN(CC(F)(F)F)CC3)cn2)c1` [Example 21, 6-m-Tolyl-N-(1-(2,2,2-trifluoroethyl)piperidin-4-yl)nicotinamide] as the compound, how does the IC50 read?
**A.** 0.898 nM

**Q.** For `Cc1cccc(-c2ccc(C(=O)NC3CCN(C)CC3)cn2)c1` [Example 22, 6-(3-Methylphenyl)-N-(1-methylpiperidin-4-yl)nicotinamide], which IC50 is on record?
**A.** 73.3 nM

**Q.** Which IC50 does the source give for `Cc1cccc(-c2ccc(C(=O)NC3CCN(Cc4ccccc4)CC3)cn2)c1` [Example 23, N-(1-Benzylpiperidin-4-yl)-6-(3-methylphenyl)nicotinamide] here?
**A.** 1.72 nM

**Q.** Which IC50 does the source give for `CCCC(=O)N1CCC(NC(=O)c2ccc(-c3cccc(C)c3)nc2)CC1` [Example 24, N-(1-Butyrylpiperidin-4-yl)-6-(3-methylphenyl)nicotinamide] here?
**A.** 2.64 nM

**Q.** For `Cc1cccc(-c2ccc(C(=O)NC3CCN(C(C)C)CC3)cn2)c1` [Example 25, N-(1-Isopropylpiperidin-4-yl)-6-(3-methylphenyl)nicotinamide], which IC50 is on record?
**A.** 7.66 nM

**Q.** Which IC50 does the source give for `CN1CCC(NC(=O)c2ccc(-c3cccc(F)c3)nc2)CC1` [Example 27, 6-(3-Fluorophenyl)-N-(1-methylpiperidin-4-yl)nicotinamide] here?
**A.** 19.1 nM

**Q.** With `O=C(NC1CCN(Cc2ccccn2)CC1)c1ccc(-c2cccc(F)c2)nc1` [Example 28, 6-(3-Fluorophenyl)-N-[1-(pyridin-2-ylmethyl)piperidin-4-yl]nicotinamide] as the compound, how does the IC50 read?
**A.** 1.72 nM

**Q.** `O=C(NC1CCN(Cc2ccccc2)CC1)c1ccc(-c2cccc(F)c2)nc1` [Example 29, N-(1-Benzylpiperidin-4-yl)-6-(3-fluorophenyl)nicotinamide] was tested. Which IC50 did it give?
**A.** 0.946 nM

**Q.** Which IC50 does the source give for `CC(C)N1CCC(NC(=O)c2ccc(-c3cccc(F)c3)nc2)CC1` [Example 30, 6-(3-Fluorophenyl)-N-(1-isopropylpiperidin-4-yl)nicotinamide] here?
**A.** 3.79 nM

**Q.** With `CCCC(=O)N1CCC(NC(=O)c2ccc(-c3cccc(F)c3)nc2)CC1` [Example 31, N-(1-Butyrylpiperidin-4-yl)-6-(3-fluorophenyl)nicotinamide] as the compound, how does the IC50 read?
**A.** 19.9 nM

From US7902373B2 (Pfizer Inc, priority 2006, dated 2011)
